Experimental data from patent US9795632B2, “Cancer treatments and compositions for use thereof” (priority 2012, dated 2017).

What was measured:
[1] = tested on: capillary circulation of the skin; assay: Laser Doppler circulation study in five human subjects (Example 7); format: in vivo; conditions: positive control formulation containing 0.1% methyl nicotinate
Text: This example illustrates delivery of nitric oxide formulations to five human subjects, using procedures and formulations similar to those discussed in Example 5. Each person served as their own control for the testing. A Moor Instruments Laser Doppler was used to determine circulation. […] The formulations used produce positive, almost immediate results when applied to the skin which, in these studies, was manifested by vasodilatation of the cutaneous vascular system. For each subject, the following creams were applied: a negative control formulation (containing no NO), 0.010 gram of a 10,000 ppm NO formulation, 0.020 gram of a 10,000 ppm NO formulation, and a positive control formulation containing 0.1% methyl nicotinate. The formulations were prepared using procedures similar to those discussed in Example 1.

[2] = tested on: micro-capillary blood flow to skin; assay: Laser Doppler microcirculation study in three human female subjects, 10,000 ppm NO (Example 5); format: in vivo; conditions: applied to the skin at 1/10% in alcohol
Method: This example illustrates delivery of nitric oxide formulations similar to those discussed herein in humans. In these studies, laser Doppler studies were performed on three human female subjects. […] The formulations used produce positive, almost immediate results when applied to the skin which, in these studies, was manifested by vasodilatation of the cutaneous vascular system.
While nitric oxide has many physiological effects, the purpose of these studies was to measure physiological effects that would be relatively easy to determine, and which would be noninvasive. […] Nitric oxide is capable of […] the capillary bed, and thus, laser Doppler was selected.
The formulation used in these studies contained nitric oxide dispersed in a lipid matrix. […] This provided a stable measuring device as determined by multiple normal evaluations of the capillary blood flow without treatment of nitric oxide.
A known positive control, methyl nicotinate, was applied to the skin at a concentration of 1/10% in alcohol. […] The laser Doppler device accurately measured these parameters.
In these studies, the participants were healthy females aged 30 to 55 years. They were in good health as determined by the medical history and were not taking any prescription medications. All study participants read and signed the informed consent statement prior to any study procedures being performed. […]

`COC(=O)c1cccnc1` [methyl nicotinate] was tested, and the “Vasodilatation (laser Doppler)” value [1] was “vasodilatation was observed” and the “Vasodilator response of positive control” value [2] was “rapid response typical of the vasodilator”.
